{
  "source": "patent US5373000A",
  "about": "“7Beta-(thiadiazolyl)-2-iminoacetamido-3cephem compounds” (Eisai Co., Ltd., priority 1985, dated 1994)",
  "key": {"Escher. coli NIHJ": {"tested_on": "Escher. coli NIHJ", "test": "Antibacterial activities, MIC", "type": "cell-based"}, "Kleb Pneumoniae EK-6": {"tested_on": "Kleb Pneumoniae EK-6", "test": "Antibacterial activities, MIC", "type": "cell-based"}, "Ser. marcescens ES-75": {"tested_on": "Ser. marcescens ES-75", "test": "Antibacterial activities, MIC", "type": "cell-based"}, "Staph. aureus 209-P": {"tested_on": "Staph. aureus 209-P", "test": "Antibacterial activities, MIC", "type": "cell-based"}, "Morg. morganii EP-14": {"tested_on": "Morg. morganii EP-14", "test": "Antibacterial activities, MIC", "type": "cell-based"}, "Pseud. aeruginosa EP-01": {"tested_on": "Pseud. aeruginosa EP-01", "test": "Antibacterial activities, MIC", "type": "cell-based"}, "in vivo": {"test": "in vivo", "settings": "mouse, iv"}, "[1]": {"settings": "Escherichia coli, read-out: MIC"}, "[2]": {"settings": "Serratia marcescens, ES75, read-out: MIC"}, "[3]": {"settings": "Staphylococcus aureus, read-out: MIC"}, "[4]": {"settings": "Morganella morganii, EP14, Morg. morganii EP-14, read-out: MIC"}, "[5]": {"settings": "Pseudomonas aeruginosa, EP01, Pseud. aeruginosa EP-01, read-out: MIC"}},
  "note": "Where two headings read alike, the source gives them in different places.",
  "data": [
    {"smiles": "CO/N=C(\\C(=O)N[C@@H]1C(=O)N2C(C(=O)[O-])=C(/C=C/C[N+]34CCCN3CCC4)CS[C@H]12)c1nsc(N)n1", "note": "[Example 38, 7β-[2-(5-Amino-1,2,4-thiadiazol-3-yl)-(Z)-2-methoxyiminoacetamido]-3-[(E)-3-(1,5-diazabicyclo[3,3,0]octan-1-io)-1-propen-1-yl]-3-cephem-4-carboxylate]", "values": [
      {"measurement": "MIC", "setting": "Escher. coli NIHJ; [1]", "result": "≤ 0.025", "unit": "µg/mL"},
      {"measurement": "MIC", "setting": "Kleb Pneumoniae EK-6; read-out: MIC", "result": "≤ 0.025", "unit": "µg/mL"},
      {"measurement": "MIC", "setting": "Ser. marcescens ES-75; [2]", "result": 0.1, "unit": "µg/mL"},
      {"measurement": "MIC", "setting": "Staph. aureus 209-P; [3]", "result": 0.2, "unit": "µg/mL"},
      {"measurement": "MIC", "setting": "Morg. morganii EP-14; [4]", "result": 0.05, "unit": "µg/mL"},
      {"measurement": "MIC", "setting": "Pseud. aeruginosa EP-01; [5]", "result": 1.56, "unit": "µg/mL"}
    ]},
    {"smiles": "CO/N=C(\\C(=O)N[C@@H]1C(=O)N2C(C(=O)[O-])=C(/C=C/C[N+](C)(C)[C@H](CO)C(N)=O)CS[C@H]12)c1nsc(N)n1", "note": "[Example 39, 7β-[2-(5-Amino-1,2,4-thiadiazol-3-yl)-(Z)-2-methoxyiminoacetamide]-3-[(E)-3-[(1R-carbamoyl-2-hydroxyethyl)dimethylammonio]-1-propenyl]-3-cephem-4-carboxylate]", "values": [
      {"measurement": "MIC", "setting": "Escher. coli NIHJ; [1]", "result": 0.05, "unit": "µg/mL"},
      {"measurement": "MIC", "setting": "Kleb Pneumoniae EK-6; read-out: MIC", "result": "≤ 0.025", "unit": "µg/mL"},
      {"measurement": "MIC", "setting": "Ser. marcescens ES-75; [2]", "result": 0.1, "unit": "µg/mL"},
      {"measurement": "LD50", "setting": "in vivo", "result": "≥ 3000", "unit": "mg/kg"},
      {"measurement": "MIC", "setting": "Staph. aureus 209-P; [3]", "result": 0.4, "unit": "µg/mL"},
      {"measurement": "MIC", "setting": "Morg. morganii EP-14; [4]", "result": 0.05, "unit": "µg/mL"},
      {"measurement": "MIC", "setting": "Pseud. aeruginosa EP-01; [5]", "result": 0.8, "unit": "µg/mL"}
    ]},
    {"smiles": "CC[N+](C)(C/C=C/C1=C(C(=O)[O-])N2C(=O)[C@@H](NC(=O)/C(=N\\OC)c3nsc(N)n3)[C@H]2SC1)CC(N)=O", "note": "(stereo partly drawn) [Example 40]", "values": [
      {"measurement": "MIC", "setting": "Escher. coli NIHJ; [1]", "result": "≤ 0.025", "unit": "µg/mL"},
      {"measurement": "MIC", "setting": "Kleb Pneumoniae EK-6; read-out: MIC", "result": "≤ 0.025", "unit": "µg/mL"},
      {"measurement": "MIC", "setting": "Ser. marcescens ES-75; [2]", "result": 0.05, "unit": "µg/mL"},
      {"measurement": "LD50", "setting": "in vivo", "result": "≥ 3000", "unit": "mg/kg"},
      {"measurement": "MIC", "setting": "Staph. aureus 209-P; [3]", "result": 0.2, "unit": "µg/mL"},
      {"measurement": "MIC", "setting": "Morg. morganii EP-14; [4]", "result": "≤ 0.025", "unit": "µg/mL"},
      {"measurement": "MIC", "setting": "Pseud. aeruginosa EP-01; [5]", "result": 0.8, "unit": "µg/mL"}
    ]},
    {"smiles": "CO/N=C(\\C(=O)N[C@@H]1C(=O)N2C(C(=O)[O-])=C(/C=C/C[N+]34CCOC(C)(C3)OCC4)CS[C@H]12)c1nsc(N)n1", "note": "[Example 41, 7β-[2-(5-Amino-1,2,4-thiadiazol-3-yl)-(Z)-2-methoxyiminoacetamide]-3-[(E)-3-(5-aza-1-methyl-2,8-diozabicyclo[3,3,1]nonan-5-io)-1-propenyl]-3-cephem-4-carboxylate]", "values": [
      {"measurement": "MIC", "setting": "Escher. coli NIHJ; [1]", "result": 0.05, "unit": "µg/mL"},
      {"measurement": "MIC", "setting": "Kleb Pneumoniae EK-6; read-out: MIC", "result": 0.05, "unit": "µg/mL"},
      {"measurement": "MIC", "setting": "Ser. marcescens ES-75; [2]", "result": 0.1, "unit": "µg/mL"},
      {"measurement": "LD50", "setting": "in vivo", "result": "≥ 3000", "unit": "mg/kg"},
      {"measurement": "MIC", "setting": "Staph. aureus 209-P; [3]", "result": 0.4, "unit": "µg/mL"},
      {"measurement": "MIC", "setting": "Morg. morganii EP-14; [4]", "result": 0.05, "unit": "µg/mL"},
      {"measurement": "MIC", "setting": "Pseud. aeruginosa EP-01; [5]", "result": 1.56, "unit": "µg/mL"}
    ]},
    {"smiles": "CO/N=C(\\C(=O)N[C@@H]1C(=O)N2C(C(=O)[O-])=C(/C=C/C[N+](C)(C)[C@H](C)C(N)=O)CS[C@H]12)c1nsc(N)n1", "note": "[Example 42]", "values": [
      {"measurement": "MIC", "setting": "Escher. coli NIHJ; [1]", "result": 0.05, "unit": "µg/mL"},
      {"measurement": "MIC", "setting": "Kleb Pneumoniae EK-6; read-out: MIC", "result": "≤ 0.025", "unit": "µg/mL"},
      {"measurement": "MIC", "setting": "Ser. marcescens ES-75; [2]", "result": 0.1, "unit": "µg/mL"},
      {"measurement": "MIC", "setting": "Staph. aureus 209-P; [3]", "result": 0.2, "unit": "µg/mL"},
      {"measurement": "MIC", "setting": "Morg. morganii EP-14; [4]", "result": 0.05, "unit": "µg/mL"},
      {"measurement": "MIC", "setting": "Pseud. aeruginosa EP-01; [5]", "result": 0.8, "unit": "µg/mL"}
    ]},
    {"smiles": "CO/N=C(\\C(=O)N[C@@H]1C(=O)N2C(C(=O)[O-])=C(/C=C/C[N+]3(C)CC(O)CC3CO)CS[C@H]12)c1nsc(N)n1", "note": "(stereo partly drawn) [Example 43]", "values": [
      {"measurement": "MIC", "setting": "Escher. coli NIHJ; [1]", "result": 0.05, "unit": "µg/mL"},
      {"measurement": "MIC", "setting": "Kleb Pneumoniae EK-6; read-out: MIC", "result": "≤ 0.025", "unit": "µg/mL"},
      {"measurement": "MIC", "setting": "Ser. marcescens ES-75; [2]", "result": 0.05, "unit": "µg/mL"},
      {"measurement": "MIC", "setting": "Staph. aureus 209-P; [3]", "result": 0.4, "unit": "µg/mL"},
      {"measurement": "MIC", "setting": "Morg. morganii EP-14; [4]", "result": "≤ 0.025", "unit": "µg/mL"},
      {"measurement": "MIC", "setting": "Pseud. aeruginosa EP-01; [5]", "result": 1.56, "unit": "µg/mL"}
    ]},
    {"smiles": "CO/N=C(\\C(=O)N[C@@H]1C(=O)N2C(C(=O)[O-])=C(/C=C/C[N+]3(CCO)CCC(C(N)=O)CC3)CS[C@H]12)c1nsc(N)n1", "note": "(stereo partly drawn) [Example 44-1]", "values": [
      {"measurement": "MIC", "setting": "Escher. coli NIHJ; [1]", "result": 0.05, "unit": "µg/mL"},
      {"measurement": "MIC", "setting": "Kleb Pneumoniae EK-6; read-out: MIC", "result": "≤ 0.025", "unit": "µg/mL"},
      {"measurement": "MIC", "setting": "Ser. marcescens ES-75; [2]", "result": 0.05, "unit": "µg/mL"},
      {"measurement": "MIC", "setting": "Staph. aureus 209-P; [3]", "result": 0.4, "unit": "µg/mL"},
      {"measurement": "MIC", "setting": "Morg. morganii EP-14; [4]", "result": 0.05, "unit": "µg/mL"},
      {"measurement": "MIC", "setting": "Pseud. aeruginosa EP-01; [5]", "result": 0.8, "unit": "µg/mL"}
    ]},
    {"smiles": "CO/N=C(\\C(=O)N[C@@H]1C(=O)N2C(C(=O)[O-])=C(/C=C/C[N+]3(CCO)CCC(C(N)=O)CC3)CS[C@H]12)c1nsc(N)n1", "note": "(stereo partly drawn) [Example 44-2]", "values": [
      {"measurement": "MIC", "setting": "Escher. coli NIHJ", "result": "≤ 0.025", "unit": "µg/mL"},
      {"measurement": "MIC", "setting": "Kleb Pneumoniae EK-6", "result": "≤ 0.025", "unit": "µg/mL"},
      {"measurement": "MIC", "setting": "Ser. marcescens ES-75", "result": 0.05, "unit": "µg/mL"},
      {"measurement": "MIC", "setting": "Staph. aureus 209-P", "result": 0.4, "unit": "µg/mL"},
      {"measurement": "MIC", "setting": "Morg. morganii EP-14; Morg. morganii EP-14", "result": "≤ 0.025", "unit": "µg/mL"},
      {"measurement": "MIC", "setting": "Pseud. aeruginosa EP-01; Pseud. aeruginosa EP-01", "result": 0.8, "unit": "µg/mL"}
    ]},
    {"smiles": "CO/N=C(\\C(=O)N[C@@H]1C(=O)N2C(C(=O)[O-])=C(/C=C/C[N+]3(CC(N)=O)CC[C@@H](O)C3)CS[C@H]12)c1nsc(N)n1", "note": "(stereo partly drawn) [Example 45-1]", "values": [
      {"measurement": "MIC", "setting": "Escher. coli NIHJ; [1]", "result": "≤ 0.025", "unit": "µg/mL"},
      {"measurement": "MIC", "setting": "Kleb Pneumoniae EK-6; read-out: MIC", "result": "≤ 0.025", "unit": "µg/mL"},
      {"measurement": "MIC", "setting": "Ser. marcescens ES-75; [2]", "result": 0.05, "unit": "µg/mL"},
      {"measurement": "MIC", "setting": "Staph. aureus 209-P; [3]", "result": 0.4, "unit": "µg/mL"},
      {"measurement": "MIC", "setting": "Morg. morganii EP-14; [4]", "result": "≤ 0.025", "unit": "µg/mL"},
      {"measurement": "MIC", "setting": "Pseud. aeruginosa EP-01; [5]", "result": 0.8, "unit": "µg/mL"}
    ]}
  ]
}
